Assay results taken from patent publication US4299834A, “8-Phenyl-purines and pharmaceutical compositions containing same” (Boehringer Ingelheim Gesellschaft mit beschrankter Haftung, priority 1979, dated 1981).

Columns and labels:
white mice = test: Acute Toxicity in white mice after oral administration; format: in vivo; conditions: single dose of 300 mg/kg, observation time 14 days
Protocol: (§1) The acute toxicity of the test compounds was determined in white mice after oral administration of a single dose of 300 mg/kg (observation time: 14 days).

[1] = as above; format: in vivo; conditions: mouse, in vivo, single dose of 300 mg/kg, observation time 14 days
Protocol: as §1

| SMILES | animals died (white mice) | LD50 at 336 h [1] |
| --- | --- | --- |
| COc1cc([S+](C)[O-])ccc1-c1nc2ncncc2[nH]1 (stereo not drawn) [H, 8-(2-Methoxy-4-methylsulfinyl-phenyl)-purine] | 3 out of 6 | ~300 mg/kg |
| COc1ccc(-c2nc3ncncc3[nH]2)c(OC)c1 [A, 8-(2,4-Dimethoxy-phenyl)-purine] | 0 out of 6 | > 300 mg/kg |
| COc1ccc(-c2nc3ncncc3[nH]2)c(OCCSC)c1 [C, 8-[4-Methoxy-2-(2-methylmercapto-ethoxy)-phenyl]purine] | 0 out of 6 | > 300 mg/kg |
| COc1cc(SC)ccc1-c1nc2ncncc2[nH]1 [B, 8-(2-Methoxy-4-methylmercapto-phenyl)-purine] | 2 out of 6 | > 300 mg/kg |
| COc1ccc(-c2nc3ncncc3[nH]2)c(OCC[S+](C)[O-])c1 (stereo not drawn) [D, 8-[4-Methoxy-2-(2-methylsulfinyl-ethoxy)-phenyl]purine] | 0 out of 6 | > 300 mg/kg |
| COc1cc(Cl)ccc1-c1nc2ncncc2[nH]1 [G, 8-(4-Chloro-2-methoxy-phenyl)-purine] | 1 out of 6 | > 300 mg/kg |
